Experimental data as given in US8178678B2, “Bis-quaternary ammonium salts and methods for modulating neuronal nicotinic acetylcholine receptors” (University of Kentucky Research Foundation, priority 2006, dated 2012).

Assays:
[1] = target: T1, Rat Striatal Nicotinic Receptors ([^3H]MLA binding sites; α7) (Rattus norvegicus, UniProt Q05941); assay: Inhibition of [^3H]MLA (methyllycaconitine) binding; conditions: 100 nM analog; [^3H]MLA; nonspecific S-nicotine; rat brain membranes; read-out: [^3H]MLA binding, % inhibition
T1 construct: Whole brain, excluding cortex and cerebellum, was homogenized in 20 vol of ice-cold buffer; from tissue; host or cells: rat brain membranes (whole brain excluding cortex and cerebellum)
Procedure: Homogenate was centrifuged (25,000 g, 15 min, 4° C). Pellets were resuspended in 20 vol buffer and incubated at 37° C., for 10 min, cooled to 4° C. and centrifuged (25,000 g, 15 min, 4° C.). Pellets were resuspended and centrifuged using the same conditions. […] Upon use, final pellets were resuspended in 20 vol assay buffer. Samples (250 μl) contained 100-140 μg of membrane protein, 3 nM [^3H]-S-nicotine or 3 nM [^3H]-methyllycaconitine (MLA), and bis-quaternary ammonium analog (100 nM) in assay buffer containing 50 mM Tris. Control was in the absence of analog. In [^3H]-S-nicotine and [^3H]-methyllycaconitine binding assays, nonspecific binding was determined in the presence of 10 μM cytisine and 10 μM S-nicotine, respectively. Incubations proceeded for 60 min at room temperature using 96-well plates and were terminated by harvesting on Unifilter-96 GF/B filter plates presoaked in 0.5% polyethylenimine, using a Packard FilterMate harvester. After washing 5 times with 350 μl ice-cold assay buffer, filter plates were dried (60 min, 4° C.), bottom-sealed, and filled with Packard's MicroScint 20 cocktail (40 μl/well). After 60 min, filter plates were top-sealed, and radioactivity determined using a Packard TopCount. Protein concentrations were determined using the Bradford dye-binding procedure bovine serum albumin as the standard. […]

[2] = target: T2, Rat Striatal Nicotinic Receptors ([^3H]NIC binding sites; α4β2) (Rattus norvegicus, UniProt P09483+P12390); assay: Inhibition of [^3H]NIC binding; conditions: 1 h; 100 nM analog; 3 nM [^3H]NIC; nonspecific 10 μM cytisine; rat brain membranes
T2 construct: Whole brain, excluding cortex and cerebellum, was homogenized in 20 vol of ice-cold buffer; from tissue; host or cells: rat brain membranes (whole brain excluding cortex and cerebellum)
Procedure: Homogenate was centrifuged (25,000 g, 15 min, 4° C). Pellets were resuspended in 20 vol buffer and incubated at 37° C., for 10 min, cooled to 4° C. and centrifuged (25,000 g, 15 min, 4° C.). Pellets were resuspended and centrifuged using the same conditions. […] Upon use, final pellets were resuspended in 20 vol assay buffer. Samples (250 μl) contained 100-140 μg of membrane protein, 3 nM [^3H]-S-nicotine or 3 nM [^3H]-methyllycaconitine (MLA), and bis-quaternary ammonium analog (100 nM) in assay buffer containing 50 mM Tris. Control was in the absence of analog. In [^3H]-S-nicotine and [^3H]-methyllycaconitine binding assays, nonspecific binding was determined in the presence of 10 μM cytisine and 10 μM S-nicotine, respectively. Incubations proceeded for 60 min at room temperature using 96-well plates and were terminated by harvesting on Unifilter-96 GF/B filter plates presoaked in 0.5% polyethylenimine, using a Packard FilterMate harvester. After washing 5 times with 350 μl ice-cold assay buffer, filter plates were dried (60 min, 4° C.), bottom-sealed, and filled with Packard's MicroScint 20 cocktail (40 μl/well). After 60 min, filter plates were top-sealed, and radioactivity determined using a Packard TopCount. Protein concentrations were determined using the Bradford dye-binding procedure bovine serum albumin as the standard.
Specific binding in the [^3H]NIC binding assay is calculated as the difference between the total binding of 3 nM [^3H]NIC and nonspecific binding in the presence of 10 μM cold cytisine. […] Analog-induced inhibition of S-nicotine-evoked [^3H]DA release is calculated as a percent of that in the absence of the bis-quaternary ammonium analog.

[3] = system: nicotinic receptors mediating S-nicotine-evoked [^3H]DA release in rat striatal slices; assay: Inhibition of S-nicotine-evoked [^3H]dopamine release from superfused rat striatal slices; type: cell-based; conditions: 1 h; 100 nM analog superfused 60 min before NIC 10 μM; rat striatal slices; read-out: [^3H]DA release, % inhibition of S-nicotine-evoked release
Procedure: Rat striatal slices (500 μm thickness, 6-8 mg wet weight) were incubated for 30 minutes in Krebs buffer (118 mM NaCl, 4.7 mM KCl, 1.2 mM MgCl2, 1.0 mM NaH2PO4, 1.3 mM CaCl2, 11.1 mM glucose, 25 mM NaHCO3, 0.11 mM L-ascorbic acid, and 0.004 mM disodium EDTA; pH 7.4, and saturated with 95% O2/5% CO2) in a metabolic shaker at 34° C. Slices were rinsed with 15 mL of fresh buffer and incubated for an additional 30 minutes in fresh buffer containing 0.1 μM [^3H]dopamine (DA; 6 slices/3 mL). Subsequently, slices were rinsed with 15 mL of fresh buffer and transferred to a glass superfusion chamber. Slices were superfused (1.0 mL/min) for 60 minutes with Krebs buffer containing nomifensine (10 μM) and pargyline (10 μM) and maintained at 34° C., pH 7.4, with continual aeration (95% O2/5% CO2). Two five minute samples (5 mL each) were collected to determine basal outflow of [^3H]DA. The bis-quaternary ammonium analogs were added to the superfusion buffer after the collection of the second sample and remained in the buffer until 12 consecutive five minute samples were collected. Subsequently, S-nicotine (NIC; 10 μM) was added to the buffer and an additional 12 consecutive five minute samples were collected. At the end of the experiment, each slice was solubilized and the [^3H] content of the tissue determined.
Radioactivity in the superfusate and tissue samples was determined by liquid scintillation spectroscopy. Fractional release for tritium collected in each sample was divided by the total tritium present in the tissue at the time of sample collection and was expressed as a percentage of total tritium. Basal [^3H]outflow was calculated from the average of the tritium collected in the two five minute samples just before addition of the quaternary analog. The sum of the increase in collected tritium resulting from either exposure to the test compound or exposure to S-nicotine in the absence and presence of the test compound equaled total [^3H]overflow. [^3H]Overflow was calculated by subtracting the [^3H]outflow during an equivalent period of prestimulation from the values in samples collected during and after drug exposure. Inasmuch as the radiolabelled compounds were not separated and identified, the tritium collected in superfusate is referred to as either [3H]outflow or [^3H]overflow, rather than as [^3H]DA. [^3H]Overflow primarily represents [^3H]DA in the presence of nomifensine and pargyline in the superfusion buffer.
The bis-quaternary ammonium analogs were also evaluated for their ability to inhibit NIC evoked [^3H]DA release. In these experiments, the striatal slices were superfused for 60 minutes with 100 nM concentration of the quaternary analogs prior to NIC (10 μM) exposure. Antagonist activity was evaluated by comparing the NIC-evoked [^3 H]overflow in the absence and presence of the analogs. The relative order of potency of the quaternary analogs for inhibition of NIC-evoked [^3H]DA release from rat striatal slices is illustrated in Table 1.
^aData are % inhibition at 100 nM concentration of the bis-quaternary ammonium analogs for at least 1-3 independent experiments; with the exception of when a Ki value in μM is provided, in which case a full concentration effect was evaluated. Specific binding in the [^3H]NIC binding assay is calculated as the difference between the total binding of 3 nM [^3H]NIC and nonspecific binding in the presence of 10 μM cold cytisine. Specific binding for the [^3H]MLA binding assay is calculated as the difference between the total binding of […] [^3H]MLA to the receptors alone and its nonspecific binding in the presence of […] cold S-nicotine. Analog-induced inhibition of S-nicotine-evoked [^3H]DA release is calculated as a percent of that in the absence of the bis-quaternary ammonium analog.

T1 sequence (Q05941 23-502): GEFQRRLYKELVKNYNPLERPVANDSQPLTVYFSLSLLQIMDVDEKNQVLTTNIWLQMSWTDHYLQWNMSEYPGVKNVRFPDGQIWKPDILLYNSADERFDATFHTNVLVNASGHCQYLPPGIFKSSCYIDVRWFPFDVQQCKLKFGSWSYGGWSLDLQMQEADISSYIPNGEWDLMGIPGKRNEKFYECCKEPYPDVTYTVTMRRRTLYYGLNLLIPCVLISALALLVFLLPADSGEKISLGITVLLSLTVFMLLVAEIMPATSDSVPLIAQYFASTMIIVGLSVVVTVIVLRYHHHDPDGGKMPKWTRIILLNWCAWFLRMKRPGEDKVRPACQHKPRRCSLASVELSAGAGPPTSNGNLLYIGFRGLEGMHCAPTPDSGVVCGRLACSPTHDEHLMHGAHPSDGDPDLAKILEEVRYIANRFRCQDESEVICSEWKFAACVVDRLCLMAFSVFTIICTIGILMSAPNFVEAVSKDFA
T2 sequence (P09483 31-630): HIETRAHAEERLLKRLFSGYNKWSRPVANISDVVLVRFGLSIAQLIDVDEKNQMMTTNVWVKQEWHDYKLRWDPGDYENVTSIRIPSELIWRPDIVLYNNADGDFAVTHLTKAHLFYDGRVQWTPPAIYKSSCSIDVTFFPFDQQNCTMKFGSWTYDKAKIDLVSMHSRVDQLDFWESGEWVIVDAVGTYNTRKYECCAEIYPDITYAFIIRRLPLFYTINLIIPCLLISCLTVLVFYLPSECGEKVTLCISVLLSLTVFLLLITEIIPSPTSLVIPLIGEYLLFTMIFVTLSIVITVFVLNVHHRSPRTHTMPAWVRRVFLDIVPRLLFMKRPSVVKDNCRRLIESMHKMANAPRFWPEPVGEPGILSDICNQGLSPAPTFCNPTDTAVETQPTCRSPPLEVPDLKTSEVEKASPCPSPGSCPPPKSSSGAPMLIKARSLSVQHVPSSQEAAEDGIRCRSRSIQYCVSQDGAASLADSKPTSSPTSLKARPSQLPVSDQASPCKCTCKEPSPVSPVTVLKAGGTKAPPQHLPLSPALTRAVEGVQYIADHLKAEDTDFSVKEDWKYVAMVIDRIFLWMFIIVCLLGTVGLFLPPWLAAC
T2 sequence (P12390 25-500): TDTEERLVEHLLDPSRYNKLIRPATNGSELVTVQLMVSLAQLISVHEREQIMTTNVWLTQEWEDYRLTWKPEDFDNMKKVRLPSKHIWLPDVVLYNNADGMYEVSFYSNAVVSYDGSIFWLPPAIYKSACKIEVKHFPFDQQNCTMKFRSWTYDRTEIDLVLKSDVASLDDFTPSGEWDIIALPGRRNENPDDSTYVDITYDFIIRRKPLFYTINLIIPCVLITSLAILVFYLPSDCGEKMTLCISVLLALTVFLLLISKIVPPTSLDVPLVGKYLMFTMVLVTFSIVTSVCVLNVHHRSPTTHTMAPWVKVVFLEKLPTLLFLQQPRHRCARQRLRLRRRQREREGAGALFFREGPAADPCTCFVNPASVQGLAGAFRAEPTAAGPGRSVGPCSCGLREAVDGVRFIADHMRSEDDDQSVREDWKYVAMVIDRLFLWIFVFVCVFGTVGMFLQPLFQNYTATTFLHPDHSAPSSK

Row | Compound | inhibition at 0.1 µM [1] | inhibition at 0.1 µM [2] | inhibition at 0.1 µM [3]
1 | OCCCc1ccc[n+](CCCCc2ccc(CCCC[n+]3cccc(CCCO)c3)cc2)c1 [Example 17, N,N′-[1,4-phenylenedi-(4-butanyl)]-bis-[3-(3-hydroxy-propyl)-pyridinium]dibromide] | 3% | 0% | 40%
2 | Cc1cccc[n+]1CCCC#Cc1ccccc1C#CCCC[n+]1ccccc1C [Example 23, 1,2-bis-[5-(2-methyl-pyridinium)-pent-1-ynyl]-benzene dibromide] | 1.2% | 2.1% | 25%
3 | Cc1ccc[n+](CCCC#Cc2ccccc2C#CCCC[n+]2cccc(C)c2)c1 [Example 24, 1,2-bis-[5-(3-methyl-pyridinium)-pent-1-ynyl]-benzene dibromide] | 0% | 3.9% | 46%
4 | Cc1cc[n+](CCCC#Cc2ccccc2C#CCCC[n+]2ccc(C)cc2)cc1 [Example 25, 1,2-bis-[5-(4-methyl-pyridinium)-pent-1-ynyl]-benzene dibromide] | 5.4% | 2.5% | 12%
5 | Cc1cc[n+](CCCC#Cc2ccccc2C#CCCC[n+]2ccc(C)cc2C)c(C)c1 [Example 26, 1,2-bis-[5-(2,4-dimethyl-pyridinium)-pent-1-ynyl]-benzene dibromide] | 0% | 0% | 18%
6 | Cc1cc[n+](CCCC#Cc2ccccc2C#CCCC[n+]2ccc(C)c(C)c2)cc1C [Example 27, 1,2-bis-[5-(3,4-dimethyl-pyridinium)-pent-1-ynyl]-benzene dibromide] | 4.2% | 4.2% | 23%
7 | Cc1cc(C)c[n+](CCCC#Cc2ccccc2C#CCCC[n+]2cc(C)cc(C)c2)c1 [Example 28, 1,2-bis-[5-(3,5-dimethyl-pyridinium)-pent-1-ynyl]-benzene dibromide] | 5% | 1.3% | 19%
8 | C(#Cc1ccccc1C#CCCC[n+]1cccc2ccccc21)CCC[n+]1cccc2ccccc21 [Example 29, 1,2-bis-(5-quinolinium-pent-1-ynyl)-benzene dibromide] | 2.3% | 0% | 20%
9 | C(#Cc1ccccc1C#CCCC[n+]1ccc2ccccc2c1)CCC[n+]1ccc2ccccc2c1 [Example 30, 1,2-bis-(5-isoquinolinium-pent-1-ynyl)-benzene dibromide] | 1.1% | 1.6% | 24%
10 | CN1CCC[C@@H]1c1ccc[n+](CCCC#Cc2ccccc2C#CCCC[n+]2cccc([C@@H]3CCCN3C)c2)c1 [Example 31, 1,2-bis-[5-(2′-S-nicotinium-pent-1-ynyl)]benzene dibromide] | 9.2% | 72% | 35%
11 | Cc1cccc[n+]1CCCCCc1ccccc1CCCCC[n+]1ccccc1C [Example 34, 1,2-bis-[5-(2-methyl-pyridinium)-pentyl]-benzene dibromide] | 7.6% | 0% | 8%
12 | Cc1ccc[n+](CCCCCc2ccccc2CCCCC[n+]2cccc(C)c2)c1 [Example 35, 1,2-bis-[5-(3-methyl-pyridinium)-pentyl]-benzene dibromide] | 5.4% | 0% | 25%
13 | Cc1cc[n+](CCCCCc2ccccc2CCCCC[n+]2ccc(C)cc2)cc1 [Example 36, 1,2-bis-[5-(4-methyl-pyridinium)-pentyl]-benzene dibromide] | 3.1% | 0% | 11%
14 | Cc1cc[n+](CCCCCc2ccccc2CCCCC[n+]2ccc(C)cc2C)c(C)c1 [Example 37, 1,2-bis-[5-(2,4-dimethyl-pyridinium)-pentyl]-benzene dibromide] | 4.8% | 0% | 20%
15 | Cc1cc(C)c[n+](CCOCCOCCOCC[n+]2cc(C)cc(C)c2)c1 [Example 90, N,N′-{2,2′-[oxybis-(2,1-ethandiyloxy)]bis-ethyl}-bis-(3,5-dimethylpyridinium)dichloride] | 5% | 10% | –
16 | Cc1ccc[n+](CC#Cc2ccc(-c3ccc(C#CC[n+]4cccc(C)c4)cc3)cc2)c1 [Example 102, N,N′-[(1,1′-biphenyl)-4,4′-di-(1-propyn-3-yl)]-bis-(3-methylpyridinium)dibromide] | 12% | 9.4% | –
17 | Cc1cc[n+](CC#Cc2ccc(-c3ccc(C#CC[n+]4ccc(C)cc4)cc3)cc2)cc1 [Example 103, N,N′-[(1,1′-biphenyl)-4,4′-di-(1-propyn-3-yl)]-bis-(4-methylpyridinium)dibromide] | 12% | 9.6% | –
18 | Cc1cc[n+](CC#Cc2ccc(-c3ccc(C#CC[n+]4ccc(C)c(C)c4)cc3)cc2)cc1C [Example 104, N,N′-[(1,1′-biphenyl)-4,4′-di-(1-propyn-3-yl)]-bis-(3,4-dimethylpyridinium)dibromide] | 16% | 19% | –
